From US20080279961A1, “TELOMERE TARGETING AGENTS AS STEM CELLS DIRECTED TREATMENTS” (priority 2007, published 2008)
Where “and” joins values, the source holds several entries; their conditions need not be identical. Equal values may be shown once. Entries after “also recorded” stand apart in the source; their conditions may differ.

Assays:
MCF-7 cells = experiment: MTT proliferation assay (bulk cells); assay type: cell-based, human; details: MCF-7, 5 day; read-out: IC50 bulk cell / whole cell population by MTT assay
Procedure: The growth inhibitory activity of RHPS4 in human bulk tumor cells have been compared, by MTT assay, against RHPS4 activity in tumor cells grown as colonies in the clonogenic assay, also termed the human tumor stem cell assay (HTCA) (FIG. 2A-B). HEK293T human embryonic kidney cells grown in the HTCA, and cord blood cells cultured in methylcellulose were also treated with RHPS4 (FIG. 2C). The MTT assay is a 5 day proliferation test measuring effects on a morphologically heterogeneous, differentiated cell population (bulk cells), whereas the HTCA and methylcellulose assays are longer term (10-15 day) tests in which only a very small fraction of a bulk culture (˜0.1-1%) will grow as colonies. Cells growing anchorage-independently as colonies in a semi-solid matrix are considered to be pluripotent stem cells (Hamburger & Salmon, 1977; Locke et al., 2005; Fiebig et al. 2004). […] Similar observations were made with the breast cancer cell line MCF-7 (shown in FIG. 2B, HTCA IC50=0.04 microM; bulk cell IC50=2 microM).

UXF1138L xenografts = experiment: tumor growth inhibition of subcutaneous xenografts; assay type: in vivo, nude mice
UXF1138L tumor tissue = experiment: HTCA/clonogenic growth of in vivo treated xenograft tissue; set-up: species or system nude mice; details: for HTCA growth [%]: control set 100%
Procedure: (§1) Upon termination of the experiment, which was when tumors reached a volume of 1.5 cm in diameter (day 28), RHPS4 treated tumor tissue and control tumors were excised, minced and digested using a mixture of collagenase (123 U/ml), DNase (375 U/ml), and hyaluronidase (290 U/ml) in RPMI 1640 medium at 37° C. for 3 hrs. All enzymes were purchased from Roche, Indianapolis Ind.). Primary cultures as well as clonogenic growth assays were prepared from the resulting single cell suspensions. Primary cultures were used for analysis of telomere length. In addition, RHPS4 treated tumors (5 mg/kg/d) and control were propagated into new animals for up to three times. The control mouse group was always derived from untreated tumor fragments, but from the same initial passage as were the RHPS4 treated tumors (FIG. 1B).
In human tumor stem cell assay (HTCA)/clonogenic assay, single cell suspensions from in vivo studies above were washed in medium and passed through sieves and the resulting single cell suspensions seeded into soft agar (n=3 tumors per group) as described by us before (Fiebig et al., 2004). Single cell suspensions of cell lines were prepared by trypsinization from cells growing as monolayers on plastic. Briefly, 5,000 (HEK293T cells), 10,000 (PC3, MCF-7 and UXF1138L cells) or 50,000 (UXF1138L tumor tissue) vital cells were added to 0.2 ml Iscove's medium/20% fetal bovine serum/0.05% gentamycin containing 0.4% agar and plated on top of a base layer consisting of 0.2 ml medium with 0.75% agar. The next day, the agar layers were fed with Isocve's medium and cultures incubated at 37° C., 7% CO2 for approximately 11 days. Vital colonies were stained with 2-(4-iodophenyl)-3-(4-nitrophenyl)-5-phenyltetrazolium chloride (1 mg/ml) 24 hrs before evaluation, and colonies >70 μm were counted with an automated image analysis system (Omincon FAS IV, BIOSYS GmbH, Karben, Germany). Drug effect was assessed as growth inhibitory concentrations 50 and 70% (IC50, IC70). Methylcellulose was used to grow cord blood stem cells instead of soft agar. The seeding density was 20,000 cells/well. Stem cell growth factor supplemented and optimized methylcellulose (Methocult H4434) was purchased from Stem Cell Technologies (Vancouver, CA). Methylcellulose lacking growth factors was used as negative growth control. Statistical significance between treatment groups was evaluated by using the Student T-test.

[1] = tested on: telomeres of UXF1138L xenografts; experiment: telomere restriction fragment (TRF) length by Southern blot in primary cultures from xenografts; assay type: in vivo, xenograft
Procedure: as §1
To measure TRF (Telomere Restriction Fragment)-length, genomic DNA was isolated from 3-7 day primary cultures established from single cell suspensions of control and treated UXF1138L xenograft tissues using the DNeasy Tissue Kit (Qiagen, Hilden, Germany). Southern blotting was performed with the Telo-TAGGG-telomere length kit from Roche (Penzberg, Germany) and analyzed as described before (Burger et al., 2005; Cookson et al., 2005).

UXF1138L cells = experiment: metaphase spreads; assay type: cell-based, human; details: 1 microM, 24 hrs
Procedure: To prepare metaphase spreads, cells were grown to 70% confluency and treated with 1 μM RHPS4 or PBS (vehicle control) for 24 hours in a T75 tissue culture flask. Supernatants were then replaced with media containing 10 μg/ml Colcemid (Sigma) and incubated for 90-120 minutes at 37° C. Next, cells were trypsinized and centrifuged at 500×g for 5 minutes; 8 ml 60 mmol/l KCl was added to the pellets and the cell suspension incubated for 20 minutes at 37° C. In a pre-fixation step, 2 ml freshly made fixative (methanol/glacial […] 3:1) was added on top of the hypotonic suspension and mixed carefully by turning the tube. After 10 minutes at RT, the mix was centrifuged at 600×g for 10 min. and the supernatant removed. For fixation, 10 ml fixative were added and the mix is kept at RT for 10 min. and centrifuged as above, the step was repeated 2 more times. Then, 0.5 ml fresh fixative was added to obtain a milky suspension of cells without clumps. Cleaned slides were placed horizontally at a 45° angle and 100 μl of cell solution dropped onto the slide from a distance of about 20 cm. Slides were dried at RT or directly dehydrated through an ethanol series of 70%, 90% and 100%. After dehydration, slides were rinsed in PBS and incubated with 0.1 μg/ml DAPI (4′, 6-diamidino-2-phenylindole)/PBS for 30 minutes at RT. […]

[2] = tested on: Saos-2, HEK293T, UXF 1138, H460; experiment: MTT assay in cell lines with short and long telomeres; assay type: cell-based, human

COS(=O)(=O)[O-].Cc1cc2c3c([n+](C)c4ccc(F)cc4c3c1)-c1cc(F)ccc1N2C [RHPS4, 3,11-difluoro-6,8,13-trimethyl-8H-quino[4,3,2-kl]acridinium methosulfate]
IC50 (MCF-7 cells): 2000 nM | tumor growth inhibition, maximal extent compared to control (UXF1138L xenografts; Passage 3, day 28): 33% | day of optimal Test/Control (UXF1138L xenografts; Passage #1): (16) day | opt. Test/Control [%] (UXF1138L xenografts; Passage #1, median tumor volume, 5 mg/kg p.o.): 63% | day of optimal Test/Control (UXF1138L xenografts; Passage #2): (7) day | opt. Test/Control [%] (UXF1138L xenografts; Passage #2, median tumor volume, 5 mg/kg p.o.): 100% | opt. Test/Control [%] (UXF1138L xenografts; Passage #3, median tumor volume, 5 mg/kg p.o., 5 mg/kg): 67% and 67.7% | day of optimal Test/Control (UXF1138L xenografts; Passage #4): (16) day | opt. Test/Control [%] (UXF1138L xenografts; Passage #4, RHPS4 5 mg/kg p.o. twice weekly, Paclitaxel 20 mg/kg i.v.): 62% | antitumor response in words (UXF1138L xenografts; Passage #4 UXF1138L xenografts): only marginal growth inhibition | oral single agent activity (UXF1138L xenografts; any of the 4 passages): did not show oral single agent activity | inhibition of colony forming units in the same tumor tissues (UXF1138L tumor tissue; Passage 3): 54%±6.6 | HTCA growth [%] (UXF1138L tumor tissue; Passage #1): 83 ± 2.3% | HTCA growth [%] (UXF1138L tumor tissue; Passage #2): 93 ± 2.3% | HTCA growth [%] (UXF1138L tumor tissue; Passage #3): 54.5 ± 6.6% | HTCA growth [%] (UXF1138L tumor tissue; Passage #4): 44 ± 6.4% | clonogenicity of RHPS4 treated tumor tissue in soft agar tumor stem cell assay (UXF1138L tumor tissue; passages 1-4): marked reduction in clonogenicity | TRF [kb] ([1]; Passage #1): 5.1 kb | TRF [kb] ([1]; Passage #2): ~4.7 kb | TRF [kb] ([1]; Passage #3): ~3.4 kb | TRF [kb] ([1]; Passage #4): 4.2 kb | rate of TRF-length shortening ([1]; passage ~28 days): approximately 1 kb per passage | chromosome morphology in metaphase spreads (UXF1138L cells): marked increase in end-to-end joining; also recorded: ring and dicentric chromosomes | difference in inhibitory concentrations 50% between cell lines with short and long telomeres [2]: two log-fold
